Values of other authors as cited in patent US20070264289A1, “COMPOSITIONS AND METHODS OF ADMINISTERING DOXEPIN TO MUCOSAL TISSUE” (EOT Research Inc., priority 2003, published 2007).
Where a name gives a salt, the structure may show the parent alone.

How the values were obtained:
[1] = systemic doxepin; drowsiness in a significant number of patients at this range
[2] = metabolite formed in the liver after systemic absorption of doxepin

Row | target plasma therapeutic range for treatment of depression [1] [ng/mL] | half-life [2] [h] | Structure (SMILES)
1 | 30 to 150 | – | CN(C)CCC=C1c2ccccc2COc2ccccc21 [doxepin, N,N-dimethyldibenz(b,e)oxepin-propylamine hydrochloride]
2 | – | 28 to 52 | CNCCC=C1c2ccccc2COc2ccccc21 [Desmethyldoxepin, desmethyldoxepin]
